Where a name gives a salt, the structure may show the parent alone.
Columns and labels:
[1] = tested on: Staph. aureus 10649; assay: Chronic abscess model, in vivo efficacy vs. Staph. aureus 10649; set-up: species or system Staph. aureus (infected mouse); conditions: mice pretreated with milk
Text: Thus, the improved oral activity of the compounds of formula I can be attributed to improved gastrointestinal absorption of these compounds. […] In this model, sustained blood levels of antibiotic will prevent reinfection by the organism at the abscess site after the last treatment.

[2] = tested on: Staph. aureus 10649; assay: Acute mouse protection, in vivo efficacy vs. Staph. aureus 10649 (100-1000 LD50 s); set-up: species or system Staph. aureus (infected mouse); conditions: for ED50 Oral (milk) / ED50 Subcutaneous / ED50: Acute Mouse Protection
Text: In Vivo Efficacy vs. Staph. aureus 10649
Model Number Subcutaneous
Thus, the improved oral activity of the compounds of formula I can be attributed to improved gastrointestinal absorption of these compounds.

[3] = in man; cited from earlier work
[4] = pH 4; cited from earlier work
[5] = in vivo; cited from earlier work
[6] = Acid stability; format: physicochemical; conditions: compared with erythromycin A
[7] = Serum blood levels after oral administration to beagle dogs (FIG. 1); format: in vivo, beagle dog; conditions: 10.0 mg/kg, solution of a buffered salt in water, three beagle dogs, 24 hours
Experimental: The serum half-lives of the new compounds have been measured in both rats and dogs (t0.5 =2-3 hours in rats, 8-12 hours in dogs). […] Similarly, erythromycin A was administered to other dogs at an equal dosage. Serum concentrations of the administered drug were determined hourly over the 24 hours following administration. The results are depicted in FIG. 1.

[8] = tested on: gastrointestinal tissues (stomach, duodenum, jejunum and ileum); assay: Gastrointestinal stimulating activity in a dog model, overall; conditions: 2 mg/kg intravenously
Experimental: Contractions in the gut were recorded with surgically implanted strain gauges.

[9] = oral, mice pretreated with milk
[10] = Staphylococcus aureus, 10649, po, oral, mice pretreated with milk, read-out: ED50 Oral (milk)
[11] = Staphylococcus aureus, 10649, sc, subcutaneous, read-out: ED50 Subcutaneous

4"-N,N-dimethylglycylerythromycin A 11,12-carbonate 6,9-hemiacetal monohydrochloride salt [Example 7]
ED50 Oral (milk) [1]: 36 mg/kg

4"-N-CBZ-sarcosyl erythryomycin A 11,12-carbonate-6,9-hemiacetal [Example 6]
ED50 Oral (milk) [2, 9]: 34 mg/kg | ED50 Subcutaneous ([2]; subcutaneous): 35 mg/kg

CC[C@H]1OC(=O)[C@H](C)[C@@H](O[C@H]2C[C@@](C)(OC)[C@@H](O)[C@H](C)O2)[C@H](C)[C@@H](O[C@@H]2O[C@H](C)C[C@H](N(C)C)[C@H]2O)[C@](C)(O)C[C@@H](C)C(=O)[C@H](C)[C@@H](O)[C@]1(C)O [Compound 1, erythromycin A]
ED50 Oral (milk) [2, 9]: 52 mg/kg | ED50 Subcutaneous ([2]; subcutaneous): 9 mg/kg | ED50 [2, 10]: 81 mg/kg | ED50 [2, 11]: 6 mg/kg | ED50 ([1]; Staphylococcus aureus, 10649, oral): 200 mg/kg | serum half-life [3]: 2 to 3 h | antibacterial activity in an environment of high acidity [4]: rapidly loses its antibacterial activity | oral absorption [5]: unreliably absorbed when administered orally

CC[C@H]1OC(=O)[C@H](C)[C@@H](O[C@H]2C[C@@](C)(OC)[C@@H](O)[C@H](C)O2)[C@H](C)[C@@H](O[C@@H]2O[C@H](C)C[C@H](N(C)C)[C@H]2O)[C@@]2(C)C[C@@H](C)C(O)(O2)[C@H](C)[C@H]2OC(=O)O[C@@]21C [Compound 2, erythromycin A 11,12-carbonate-6,9-hemiacetal]
ED50 [2, 10]: 69 mg/kg | ED50 [2, 11]: 15 mg/kg | subcutaneous versus oral activity ([2]; Table I, milk-pretreated mice): more active subcutaneously than orally | acid stability relative to erythromycin A [6]: significantly more acid-stable than erythromycin A

CC[C@H]1OC(=O)[C@H](C)[C@@H](O[C@H]2C[C@@](C)(OC)[C@@H](OC(C)=O)[C@H](C)O2)[C@H](C)[C@@H](O[C@@H]2O[C@H](C)C[C@H](N(C)C)[C@H]2O)[C@](C)(O)C[C@@H](C)C(=O)[C@H](C)[C@@H](O)[C@]1(C)O [Compound 3, 4"-acetylerythromycin A]
ED50 [2, 10]: 100 mg/kg | ED50 [2, 11]: 30 mg/kg

CC[C@H]1OC(=O)[C@H](C)[C@@H](O[C@H]2C[C@@](C)(OC)[C@@H](OC(C)=O)[C@H](C)O2)[C@H](C)[C@@H](O[C@@H]2O[C@H](C)C[C@H](N(C)C)[C@H]2O)[C@@]2(C)C[C@@H](C)C(O)(O2)[C@H](C)[C@H]2OC(=O)O[C@@]21C [Compound 4, 4"-acetylerythromycin A 11,12-carbonate-6,9-hemiketal HCl salt]
ED50 [2, 10]: 40 mg/kg | ED50 [2, 11]: 27 mg/kg

CC[C@H]1OC(=O)[C@H](C)[C@@H](O[C@H]2C[C@@](C)(OC)[C@@H](OC(C)=O)[C@H](C)O2)[C@H](C)[C@@H](O[C@@H]2O[C@H](C)C[C@H](N(C)C)[C@H]2O)[C@@]2(C)C[C@@H](C)C(O)(O2)[C@H](C)[C@H]2OC(=O)O[C@@]21C [Compound 7, 4"-acetylerythromycin A 11,12-carbonate-6,9-hemiacetal free base]
half life relative to erythromycin A [7]: markedly longer half life | peak blood level relative to erythromycin A [7]: higher peak blood level

CC[C@H]1OC(=O)[C@H](C)[C@@H](O[C@H]2C[C@@](C)(OC)[C@@H](O)[C@H](C)O2)[C@H](C)[C@@H](O[C@@H]2O[C@H](C)C[C@H](N(C)C)[C@H]2O)[C@](C)(O)C[C@@H](C)C(=O)[C@H](C)[C@@H](O)[C@]1(C)O [erythromycin A lactobionate]
stimulation of the stomach, duodenum, jejunum and ileum [8]: pronounced stimulation
